In one experiment the target is T1, Histamine H2 (h) (Homo sapiens, UniProt P25021).
T1 construct: expressed in transfected cells; host or cells: CHO cells
As to the kind of experiment: Binding H2 (h) (aa). The note with it: read-out: % Inhibition of Control Specific Binding @ 10 μM. The protocol: (§1) Radioligand binding assay methods utilized to measure the activity of compounds of the invention will be familiar to those skilled in the art. In each assay case, the assay components such as, for example, the cell-type, ligand, reference compound and the like, will be familiar to practitioners of such an assay.
(§2) Analysis and Expression of Results: Compounds of the invention were tested in the biochemical assays and percent inhibition of specific binding was determined. The specific ligand binding to the receptors is defined as the difference between the total binding and the nonspecific binding determined in the presence of an excess of unlabelled ligand. The results are expressed as a percent inhibition of control specific binding (100−((measured specific binding/control specific binding)×100)) obtained in the presence of test compounds.

The next experiment deals with Progesterone PR (h). Put plainly: Binding PR (h) (ag). Further details: species or system human. The method, then:
as §1, §2

A further experiment has as its system ATPase (Na^+/K^+). Put plainly: Enzyme assay ATPase (Na+/K+). Format: biochemical, porcine. The source says:
(§3) The enzyme assays provided below will be familiar to those skilled in the art.
(§4) Analysis and Expression of Results: The results are expressed as a percent of control specific activity ((measured specific activity/control specific activity)×100) obtained in the presence of the test compounds.

In a further experiment the target is T2, Neurokinin NK2 (h) (Homo sapiens, UniProt P21452).
T2 construct: expressed in transfected cells; host or cells: CHO cells
T2 sequence (P21452 1-398): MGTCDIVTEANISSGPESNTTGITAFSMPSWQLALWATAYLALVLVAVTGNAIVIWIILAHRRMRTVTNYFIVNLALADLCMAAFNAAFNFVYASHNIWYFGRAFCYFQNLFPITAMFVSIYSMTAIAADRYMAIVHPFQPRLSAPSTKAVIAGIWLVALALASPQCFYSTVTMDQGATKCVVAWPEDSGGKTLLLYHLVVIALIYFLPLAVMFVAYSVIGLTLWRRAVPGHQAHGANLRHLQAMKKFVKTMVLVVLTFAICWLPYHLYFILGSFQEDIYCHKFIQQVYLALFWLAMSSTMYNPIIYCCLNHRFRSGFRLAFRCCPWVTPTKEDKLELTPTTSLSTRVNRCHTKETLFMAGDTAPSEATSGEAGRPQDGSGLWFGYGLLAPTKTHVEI
Put plainly: Binding NK2 (h) (ag). The note with it: read-out: % Inhibition of Control Specific Binding @ 10 μM. The protocol:
as §1, §2

The target in the next experiment is T3, Bradykinin B2 (h) (Homo sapiens, UniProt P30411).
T3 construct: expressed in transfected cells; host or cells: CHO cells
T3 sequence (P30411 1-391): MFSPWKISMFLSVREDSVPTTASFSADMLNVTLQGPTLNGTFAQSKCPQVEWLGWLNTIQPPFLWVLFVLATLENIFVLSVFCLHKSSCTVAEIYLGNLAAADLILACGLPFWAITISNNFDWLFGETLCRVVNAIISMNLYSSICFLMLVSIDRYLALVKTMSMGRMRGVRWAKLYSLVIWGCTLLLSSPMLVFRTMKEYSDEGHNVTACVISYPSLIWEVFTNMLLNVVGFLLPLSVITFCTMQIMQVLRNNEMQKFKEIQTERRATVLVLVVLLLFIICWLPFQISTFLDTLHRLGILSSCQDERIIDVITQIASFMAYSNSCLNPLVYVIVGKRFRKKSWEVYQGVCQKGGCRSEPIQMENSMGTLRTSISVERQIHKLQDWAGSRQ
Put plainly: Binding B2 (h) (ag). The note with it: read-out: % Inhibition of Control Specific Binding @ 10 μM. The method, then: as §1, §2

Another experiment concerns the target T4, MAO-A (h) (Homo sapiens, UniProt P21397).
T4 construct: human placenta; from tissue; host or cells: human placenta
T4 sequence (P21397 1-527): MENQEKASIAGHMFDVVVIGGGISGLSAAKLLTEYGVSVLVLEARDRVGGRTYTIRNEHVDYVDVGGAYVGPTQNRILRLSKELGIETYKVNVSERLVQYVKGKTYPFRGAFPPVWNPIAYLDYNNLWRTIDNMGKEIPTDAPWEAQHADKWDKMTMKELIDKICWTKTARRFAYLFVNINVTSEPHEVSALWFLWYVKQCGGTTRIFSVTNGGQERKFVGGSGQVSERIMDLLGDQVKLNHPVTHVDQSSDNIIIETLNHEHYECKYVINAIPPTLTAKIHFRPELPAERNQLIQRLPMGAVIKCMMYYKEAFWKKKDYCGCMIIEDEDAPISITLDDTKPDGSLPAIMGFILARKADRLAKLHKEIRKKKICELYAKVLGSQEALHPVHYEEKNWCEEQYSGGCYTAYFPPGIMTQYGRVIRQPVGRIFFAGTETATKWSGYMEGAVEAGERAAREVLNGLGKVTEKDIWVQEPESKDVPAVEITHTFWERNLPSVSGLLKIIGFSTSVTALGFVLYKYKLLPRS
Put plainly: Enzyme assay MAO-A (h). Format: biochemical. The note with it: read-out: % Inhibition of Control Values @ 10 μM.
Text: as §3, §4

In another experiment the target is T5, Adenosine A2A (h) (Homo sapiens, UniProt P29274).
T5 construct: expressed in transfected cells; host or cells: HEK-293 cells
Put plainly: Binding A2A (h) (ag). The note with it: read-out: % Inhibition of Control Specific Binding @ 10 μM. The method, then: as §1, §2

The next experiment deals with T6, Adenosine A3 (h) (Homo sapiens, UniProt P0DMS8).
T6 construct: expressed in transfected cells; host or cells: HEK-293 cells
T6 sequence (P0DMS8 1-318): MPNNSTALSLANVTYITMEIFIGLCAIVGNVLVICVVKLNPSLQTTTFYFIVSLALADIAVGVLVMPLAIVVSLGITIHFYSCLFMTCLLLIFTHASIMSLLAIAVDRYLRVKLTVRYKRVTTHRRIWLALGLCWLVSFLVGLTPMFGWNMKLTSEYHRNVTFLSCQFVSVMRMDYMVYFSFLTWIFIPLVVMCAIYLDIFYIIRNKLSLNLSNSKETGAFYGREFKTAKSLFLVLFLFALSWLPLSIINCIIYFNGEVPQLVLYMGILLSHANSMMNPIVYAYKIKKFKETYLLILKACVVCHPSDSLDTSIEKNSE
Put plainly: Binding A3 (h) (ag). The note with it: read-out: % Inhibition of Control Specific Binding @ 10 μM. The protocol: as §1, §2

T5 sequence (P29274 whole entry): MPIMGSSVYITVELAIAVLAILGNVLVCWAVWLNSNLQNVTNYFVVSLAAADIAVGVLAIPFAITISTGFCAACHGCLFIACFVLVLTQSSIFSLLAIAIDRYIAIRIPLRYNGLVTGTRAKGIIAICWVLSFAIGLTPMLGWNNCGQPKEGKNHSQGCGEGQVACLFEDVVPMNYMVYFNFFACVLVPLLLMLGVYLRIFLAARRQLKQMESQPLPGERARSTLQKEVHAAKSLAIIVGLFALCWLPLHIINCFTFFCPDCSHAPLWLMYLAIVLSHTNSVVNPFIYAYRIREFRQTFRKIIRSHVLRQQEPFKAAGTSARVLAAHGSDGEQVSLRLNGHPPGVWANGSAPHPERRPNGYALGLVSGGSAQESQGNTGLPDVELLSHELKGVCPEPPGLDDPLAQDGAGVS
T1 sequence (P25021 whole entry): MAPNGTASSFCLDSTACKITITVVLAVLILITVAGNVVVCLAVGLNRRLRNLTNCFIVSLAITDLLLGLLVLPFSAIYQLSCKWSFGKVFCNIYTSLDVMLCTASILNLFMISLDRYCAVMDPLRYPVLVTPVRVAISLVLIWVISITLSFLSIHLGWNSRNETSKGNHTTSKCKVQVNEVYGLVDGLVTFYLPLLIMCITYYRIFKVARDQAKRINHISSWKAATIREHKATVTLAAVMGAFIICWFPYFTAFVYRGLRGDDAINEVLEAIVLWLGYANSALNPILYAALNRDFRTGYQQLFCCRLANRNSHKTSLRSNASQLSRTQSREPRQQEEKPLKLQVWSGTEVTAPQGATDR

As to `CC1(C)C(=O)N(c2ccc(C#N)c(C(F)(F)F)c2)C(=O)N1c1ccc(C(N)=O)c(F)c1` [(MIII), 4-(3-(4-cyano-3-(trifluoromethyl)phenyl)-5,5-dimethyl-2,4-dioxoimidazolidin-1-yl)-2-fluorobenzamide], the inhibition at 10 µM was -19% at Histamine H2 (h); 0% on Neurokinin NK2 (h); -3% at Bradykinin B2 (h); 14% at MAO-A (h); 2% at Adenosine A2A (h); 11% on Adenosine A3 (h). In addition, in the experiment with Progesterone PR (h), the “% Inhibition of Control Specific Binding @ 10 μM” value is on record as 8%. Also, the “% Inhibition of Control Values @ 10 μM” value in the experiment on ATPase (Na^+/K^+) was found to be 3%.

Turning to `CNC(=O)c1ccc(N2C(=O)N(c3ccc(C#N)c(C(F)(F)F)c3)C(=O)C2(C)C)cc1F` [(MIV), 4-(3-(4-cyano-3-(trifluoromethyl)phenyl)-5,5-dimethyl-2,4-dioxoimidazolidin-1-yl)-2-fluoro-N-methylbenzamide], the inhibition at 10 µM at Histamine H2 (h) is -20%; on Neurokinin NK2 (h) it was 2%; at Bradykinin B2 (h), 0%; at MAO-A (h) it was 11%; at Adenosine A2A (h) it was 3%; at Adenosine A3 (h), 50%. Further, the “% Inhibition of Control Specific Binding @ 10 μM” value with Progesterone PR (h) is given as 11%. Further, the “% Inhibition of Control Values @ 10 μM” value in the experiment on ATPase (Na^+/K^+) is −13%.

For `CC1(C)C(=O)N(c2ccc(C#N)c(C(F)(F)F)c2)C(=S)N1c1ccc(C(N)=O)c(F)c1` [(MII), 4-(3-(4-Cyano-3-(trifluoromethyl)phenyl)-5,5-dimethyl-4-oxo-2-thioxoimidazolidin-1-yl)-2-fluorobenzamide], the inhibition at 10 µM at Histamine H2 (h) is -27%; at Neurokinin NK2 (h), -3%; at Bradykinin B2 (h), -12%; on MAO-A (h) it was 0%; on Adenosine A2A (h) it was -5%; on Adenosine A3 (h), 17%. Further, the “% Inhibition of Control Specific Binding @ 10 μM” value in the experiment on Progesterone PR (h) came to 74%. Moreover, in the experiment on ATPase (Na^+/K^+), the “% Inhibition of Control Values @ 10 μM” value is on record as −10%.

For `CC1(C)C(=O)N(c2ccc(C#N)c(C(F)(F)F)c2)C(=S)N1c1ccc(C(=O)O)c(F)c1` [(MI), 4-(3-(4-cyano-3-(trifluoromethyl)phenyl)-5,5-dimethyl-4-oxo-2-thioxoimidazolidin-1-yl)-2-fluorobenzoic acid], the inhibition at 10 µM on Histamine H2 (h) was -41%; at Neurokinin NK2 (h), -6%; on Bradykinin B2 (h) it was 2%; on MAO-A (h), -5%; on Adenosine A2A (h), 10%; on Adenosine A3 (h), 69%. For the same compound, the “% Inhibition of Control Specific Binding @ 10 μM” value in the experiment on Progesterone PR (h) is reported as 23%. The “% Inhibition of Control Values @ 10 μM” value in the experiment on ATPase (Na^+/K^+) was found to be 4%.

As usually defined, the inhibition is the change of the read-out against control, counted positive when it falls.
